{
  "source": "ChEMBL document CHEMBL1201862",
  "about": "“PubChem BioAssay data set” (2004)",
  "assay_in_all_cases": "NCI-60 cell line screen, 48 h",
  "key": {"COLO 205": {"system": "COLO 205"}, "Malme-3M": {"system": "Malme-3M"}, "DU-145": {"system": "DU-145"}, "SW-620": {"system": "SW-620"}, "OVCAR-4": {"system": "OVCAR-4"}, "CCRF-CEM": {"system": "CCRF-CEM"}, "HCT-116": {"system": "HCT-116"}, "UACC-257": {"system": "UACC-257"}, "SK-MEL-28": {"system": "SK-MEL-28"}, "SK-OV-3": {"system": "SK-OV-3"}, "TK-10": {"system": "TK-10"}, "OVCAR-8": {"system": "OVCAR-8"}, "NCI/ADR-RES": {"system": "NCI/ADR-RES"}, "SF-295": {"system": "SF-295"}, "MDA-N": {"system": "MDA-N"}, "A498": {"system": "A498"}, "A549": {"system": "A549"}, "MOLT-4": {"system": "MOLT-4"}, "RXF 393": {"system": "RXF 393"}, "HCT-15": {"system": "HCT-15"}},
  "note": "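Step 1: Grow cells in 96-well plates. Step 2: Expose to compound for 48 hours at 5 concentrations. Step 3: Interpolate endpoints linearly; if unreached, use highest concentration. Here, GI50 denotes the concentration required for 50% inhibition of growth.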 Active and inactive are the calls of the source. Rule as the data show it: active = GI50 up to about 1.1 µM and inactive = higher.",
  "data": [
    {"smiles": "O=C(Nc1ccccc1)N(CCCCN(Cc1ccccc1)C(=O)Nc1ccccc1)Cc1ccccc1", "values": [
      {"measurement": "GI50", "setting": "COLO 205", "value": "> 100 µM (inactive)"},
      {"measurement": "GI50", "setting": "Malme-3M", "value": "> 100 µM (inactive)"},
      {"measurement": "GI50", "setting": "DU-145", "value": "> 100 µM (inactive)"},
      {"measurement": "GI50", "setting": "SW-620", "value": "> 100 µM (inactive)"},
      {"measurement": "GI50", "setting": "OVCAR-4", "value": "75.5 µM (inactive)"},
      {"measurement": "GI50", "setting": "CCRF-CEM", "value": "> 100 µM (inactive)"},
      {"measurement": "GI50", "setting": "HCT-116", "value": "30.1 µM (inactive)"},
      {"measurement": "GI50", "setting": "UACC-257", "value": "> 100 µM (inactive)"},
      {"measurement": "GI50", "setting": "SK-MEL-28", "value": "> 100 µM (inactive)"},
      {"measurement": "GI50", "setting": "SK-OV-3", "value": "> 100 µM (inactive)"},
      {"measurement": "GI50", "setting": "TK-10", "value": "> 100 µM (inactive)"},
      {"measurement": "GI50", "setting": "OVCAR-8", "value": "> 100 µM (inactive)"},
      {"measurement": "GI50", "setting": "NCI/ADR-RES", "value": "> 100 µM (inactive)"},
      {"measurement": "GI50", "setting": "SF-295", "value": "> 100 µM (inactive)"},
      {"measurement": "GI50", "setting": "MDA-N", "value": "> 100 µM (inactive)"},
      {"measurement": "GI50", "setting": "A498", "value": "> 100 µM (inactive)"},
      {"measurement": "GI50", "setting": "A549", "value": "28.8 µM (inactive)"},
      {"measurement": "GI50", "setting": "MOLT-4", "value": "52.7 µM (inactive)"},
      {"measurement": "GI50", "setting": "RXF 393", "value": "43.8 µM (inactive)"},
      {"measurement": "GI50", "setting": "HCT-15", "value": "> 100", "unit": "µM"}
    ]},
    {"smiles": "c1ccc2c(c1)CCc1[nH]c3c(c1-2)-c1ccccc1CC3", "values": [
      {"measurement": "GI50", "setting": "COLO 205", "value": "> 100 µM (inactive)"},
      {"measurement": "GI50", "setting": "Malme-3M", "value": "> 100 µM (inactive)"},
      {"measurement": "GI50", "setting": "DU-145", "value": "> 100 µM (inactive)"},
      {"measurement": "GI50", "setting": "SW-620", "value": "98.4 µM (inactive)"},
      {"measurement": "GI50", "setting": "OVCAR-4", "value": "61.5 µM (inactive)"},
      {"measurement": "GI50", "setting": "CCRF-CEM", "value": "39.4 µM (inactive)"},
      {"measurement": "GI50", "setting": "HCT-116", "value": "96.8 µM (inactive)"},
      {"measurement": "GI50", "setting": "UACC-257", "value": "> 100 µM (inactive)"},
      {"measurement": "GI50", "setting": "SK-MEL-28", "value": "> 100 µM (inactive)"},
      {"measurement": "GI50", "setting": "SK-OV-3", "value": "> 100 µM (inactive)"},
      {"measurement": "GI50", "setting": "TK-10", "value": "98.6 µM (inactive)"},
      {"measurement": "GI50", "setting": "OVCAR-8", "value": "> 100 µM (inactive)"},
      {"measurement": "GI50", "setting": "NCI/ADR-RES", "value": "98.6 µM (inactive)"},
      {"measurement": "GI50", "setting": "SF-295", "value": "39.5 µM (inactive)"},
      {"measurement": "GI50", "setting": "MDA-N", "value": "94 µM (inactive)"},
      {"measurement": "GI50", "setting": "A498", "value": "> 100 µM (inactive)"},
      {"measurement": "GI50", "setting": "A549", "value": "77.1 µM (inactive)"},
      {"measurement": "GI50", "setting": "MOLT-4", "value": "35.6 µM (inactive)"},
      {"measurement": "GI50", "setting": "RXF 393", "value": "45.3 µM (inactive)"},
      {"measurement": "GI50", "setting": "HCT-15", "value": 48.1, "unit": "µM"}
    ]},
    {"smiles": "COc1ccc(/N=c2\\ssc(C(=S)Nc3ccc(OC)cc3)c2S)cc1", "values": [
      {"measurement": "GI50", "setting": "COLO 205", "value": "> 100 µM (inactive)"},
      {"measurement": "GI50", "setting": "Malme-3M", "value": "> 100 µM (inactive)"},
      {"measurement": "GI50", "setting": "DU-145", "value": "> 100 µM (inactive)"},
      {"measurement": "GI50", "setting": "SW-620", "value": "> 100 µM (inactive)"},
      {"measurement": "GI50", "setting": "OVCAR-4", "value": "> 100 µM (inactive)"},
      {"measurement": "GI50", "setting": "CCRF-CEM", "value": "31.6 µM (inactive)"},
      {"measurement": "GI50", "setting": "HCT-116", "value": "88.1 µM (inactive)"},
      {"measurement": "GI50", "setting": "UACC-257", "value": "> 100 µM (inactive)"},
      {"measurement": "GI50", "setting": "SK-MEL-28", "value": "6.68 µM (inactive)"},
      {"measurement": "GI50", "setting": "SK-OV-3", "value": "> 100 µM (inactive)"},
      {"measurement": "GI50", "setting": "TK-10", "value": "> 100 µM (inactive)"},
      {"measurement": "GI50", "setting": "OVCAR-8", "value": "97.5 µM (inactive)"},
      {"measurement": "GI50", "setting": "NCI/ADR-RES", "value": "> 100 µM (inactive)"},
      {"measurement": "GI50", "setting": "SF-295", "value": "> 100 µM (inactive)"},
      {"measurement": "GI50", "setting": "MDA-N", "value": "> 100 µM (inactive)"},
      {"measurement": "GI50", "setting": "A498", "value": "> 100 µM (inactive)"},
      {"measurement": "GI50", "setting": "A549", "value": "83.6 µM (inactive)"},
      {"measurement": "GI50", "setting": "MOLT-4", "value": "> 100 µM (inactive)"},
      {"measurement": "GI50", "setting": "RXF 393", "value": "> 100 µM (inactive)"},
      {"measurement": "GI50", "setting": "HCT-15", "value": 64.9, "unit": "µM"}
    ]},
    {"smiles": "Cc1c(Cc2ccccc2)c(Cc2ccccc2)c(C)[s+]1[O-]", "values": [
      {"measurement": "GI50", "setting": "COLO 205", "value": "20.5 µM (inactive)"},
      {"measurement": "GI50", "setting": "Malme-3M", "value": "33.2 µM (inactive)"},
      {"measurement": "GI50", "setting": "DU-145", "value": "38.3 µM (inactive)"},
      {"measurement": "GI50", "setting": "SW-620", "value": "26.4 µM (inactive)"},
      {"measurement": "GI50", "setting": "OVCAR-4", "value": "23.7 µM (inactive)"},
      {"measurement": "GI50", "setting": "CCRF-CEM", "value": "19.1 µM (inactive)"},
      {"measurement": "GI50", "setting": "HCT-116", "value": "24.1 µM (inactive)"},
      {"measurement": "GI50", "setting": "UACC-257", "value": "19.7 µM (inactive)"},
      {"measurement": "GI50", "setting": "SK-MEL-28", "value": "30.3 µM (inactive)"},
      {"measurement": "GI50", "setting": "SK-OV-3", "value": "40.3 µM (inactive)"},
      {"measurement": "GI50", "setting": "TK-10", "value": "26.1 µM (inactive)"},
      {"measurement": "GI50", "setting": "OVCAR-8", "value": "41.3 µM (inactive)"},
      {"measurement": "GI50", "setting": "NCI/ADR-RES", "value": "19.7 µM (inactive)"},
      {"measurement": "GI50", "setting": "SF-295", "value": "30.1 µM (inactive)"},
      {"measurement": "GI50", "setting": "MDA-N", "value": "24.6 µM (inactive)"},
      {"measurement": "GI50", "setting": "A498", "value": "24.5 µM (inactive)"},
      {"measurement": "GI50", "setting": "A549", "value": "30.2 µM (inactive)"},
      {"measurement": "GI50", "setting": "MOLT-4", "value": "14.7 µM (inactive)"},
      {"measurement": "GI50", "setting": "RXF 393", "value": "20.6 µM (inactive)"},
      {"measurement": "GI50", "setting": "HCT-15", "value": 31.3, "unit": "µM"}
    ]},
    {"smiles": "C/C=C(\\C)C(=O)OC1/C=C(\\C)CC/C=C(\\C)CC2OC(=O)C(C)(OC(C)=O)C12", "note": "(stereo not given)", "values": [
      {"measurement": "GI50", "setting": "COLO 205", "value": "> 100 µM (inactive)"},
      {"measurement": "GI50", "setting": "Malme-3M", "value": "> 100 µM (inactive)"},
      {"measurement": "GI50", "setting": "DU-145", "value": "> 100 µM (inactive)"},
      {"measurement": "GI50", "setting": "SW-620", "value": "> 100 µM (inactive)"},
      {"measurement": "GI50", "setting": "OVCAR-4", "value": "> 100 µM (inactive)"},
      {"measurement": "GI50", "setting": "CCRF-CEM", "value": "> 100 µM (inactive)"},
      {"measurement": "GI50", "setting": "HCT-116", "value": "> 100 µM (inactive)"},
      {"measurement": "GI50", "setting": "UACC-257", "value": "> 100 µM (inactive)"},
      {"measurement": "GI50", "setting": "SK-MEL-28", "value": "> 100 µM (inactive)"},
      {"measurement": "GI50", "setting": "SK-OV-3", "value": "> 100 µM (inactive)"},
      {"measurement": "GI50", "setting": "TK-10", "value": "> 100 µM (inactive)"},
      {"measurement": "GI50", "setting": "OVCAR-8", "value": "> 100 µM (inactive)"},
      {"measurement": "GI50", "setting": "NCI/ADR-RES", "value": "> 100 µM (inactive)"},
      {"measurement": "GI50", "setting": "SF-295", "value": "> 100 µM (inactive)"},
      {"measurement": "GI50", "setting": "MDA-N", "value": "> 100 µM (inactive)"},
      {"measurement": "GI50", "setting": "A498", "value": "> 100 µM (inactive)"},
      {"measurement": "GI50", "setting": "A549", "value": "> 100 µM (inactive)"},
      {"measurement": "GI50", "setting": "MOLT-4", "value": "> 100 µM (inactive)"},
      {"measurement": "GI50", "setting": "RXF 393", "value": "> 100 µM (inactive)"},
      {"measurement": "GI50", "setting": "HCT-15", "value": "> 100", "unit": "µM"}
    ]}
  ]
}
